Test: gradient 5% acetonitrile 3 min, to 50% in 2 min, to 85% in 15 min, held 3 min, 100 µL/min
Details: column: Zorbax Extend-C18 2.1 x 50 mm; eluents: water / acetonitrile, 0.1% formic acid
In short: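 Data were gathered over 3 months by HPLC coupled to a quadrupole time-of-flight mass spectrometer, operated in positive and negative ionization mode. Mixtures of ~100 pure standards ran on a Zorbax Extend-C18 column (2.1 × 50 mm, 1.8 μm) at 100 μL/min, with water and acetonitrile each containing 0.1% formic acid and dead and dwell volumes of 40 μL and 900 μL. Retention time was read from adduct peaks picked by computer and checked manually.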

RP-LC retention time [s]	Compound
690	N#Cc1cccc(NC(=O)Cn2c(=O)cc(C(=O)N3CCCC3)c3ccccc32)c1
656	Cn1nccc1C(=O)N1CCN(c2nc3c(S(C)(=O)=O)cccc3s2)CC1
744	O=C(Nc1ccc(Br)cc1F)Nc1c(-c2ccc(F)cc2)nc2ccccn12
1310	Cc1cccc(CNC(=O)c2cc(C(C)C)n3nccc3n2)c1
584	CC1(O)CCOC2(CCN(Cc3cn[nH]c3-c3ccccc3)CC2)C1 (centres undefined)
994	COCCCn1c(=O)c2ccccc2n(Cc2nc(-c3ccccc3)no2)c1=O
885	CC(C)OCCCNC(=O)c1c2c(cn(-c3ccc(F)cc3)c1=O)C(=O)CC(C)(C)C2
818	Cc1ccccc1Cn1nc2ccc(S(=O)(=O)N3CCOCC3)cn2c1=O
714	COc1ccccc1CNc1c(-c2cc(OC)c(OC)c(OC)c2)nc2ncccn12
692	CCC(C)NC(=O)c1nn(-c2ccc(OC)cc2)c(OC)cc1=O (centres undefined)
915	Cc1nc2ccccc2c(=O)n1Cc1noc(C(=O)NCCC2=CCCCC2)n1
877	CCOC(=O)Cc1ccc(NC(=O)NC2CCN(c3ccc(C)c(C)c3)C2=O)cc1 (centres undefined)
943	CCCCOc1ccc(-c2cc3c4nnc(CCC(=O)NCCc5cccs5)n4ccn3n2)cc1
617	O=C(Nc1ccccc1)c1nnc(CCC(=O)N2CCN(c3ccccn3)CC2)s1
749	O=C(Cn1cccc1-c1nnc(C2CC2)o1)NCc1ccc2c(c1)OCO2
824	Cc1ccc(CN2CCc3nc(N4CCN(c5ccccc5F)CC4)ncc3C2)cc1

RP-LC retention time [s]	Compound
699	CCOC(=O)c1[nH]c2ccccc2c1NC(=O)c1ccc(N2C(=O)CCC2=O)cc1
872	COc1ccc(Cc2nc3nccc(-c4ccccc4)n3n2)cc1
862	Cc1ccccc1NC(=O)C(=O)c1ccc[nH]1
1340	COc1ccc(C2Cn3nnc(-c4nc(-c5ccc(OCc6ccccc6)cc5)no4)c3CO2)cc1 (centres undefined)
773	O=C(c1ccccc1Br)N1CCN(Cc2nc(-c3ccccc3)cs2)CC1
661	CCOCCCNC(=O)CC1CCN(C(=O)c2[nH]c(C)cc2C)CC1
626	CN(C)S(=O)(=O)c1ccc(-n2cnc(C(=O)N3CCN(Cc4ccccc4)CC3)c2)cc1
624	CNS(=O)(=O)c1c[nH]c(=O)[nH]c1=O
623	CC(C)n1cnc2cc(CNC(=O)c3ccc(F)cc3F)ccc21
807	COc1cccc(NC(=O)Cn2c(=O)c3cc(-c4ccco4)nn3c3ncccc32)c1
1180	COc1ccc(OC)c(NC(=O)CSc2cc(N3CCN(c4ccccc4F)CC3)ncn2)c1
909	Cc1noc([C@@H]2CC(F)(F)CN2S(=O)(=O)c2ccccc2C)n1
762	COc1ccc(C(=O)N2c3ccccc3NC3=C(C(=O)CCC3)C2c2ccco2)cc1 (centres undefined)
862	Cc1cc(C)cc(C(=O)NC2CCN(c3ccccc3)C2=O)c1 (centres undefined)
1060	CC1CCN(C(=O)c2cn(-c3cc(-c4nc(C(C)(C)C)no4)ccn3)cn2)CC1

Second part, the compound before the results:

Compound	RP-LC retention time [s]
O=C(NCc1ccccc1Cl)C1CCN(C(=O)c2ncn3c2COC(c2ccccc2)C3)CC1 (centres undefined)	786
Cc1cc(Br)ccc1NS(=O)(=O)c1cc(-c2nc(C)c(C)s2)cs1	1110
COc1ccc(S(=O)(=O)N2CCC3(CC2)CC(C)(O)CCO3)cc1OC (centres undefined)	612
COc1ccc(-c2nnc(-c3ccc(C)c(S(=O)(=O)Nc4cccnc4)c3)o2)cc1OC	722
COc1ccc(NC(=O)CSc2ccc(N3CCCC(C(=O)NC4CC4)C3)nn2)cc1Cl (centres undefined)	624
CCCn1cc(C(=O)NCc2cccs2)c2cccnc21	799
Cc1noc([C@@H]2CC(F)(F)CN2C(=O)c2cc(C)[nH]n2)n1	604
CCc1nnc(-c2ccc3ccn(CC(=O)Nc4ccc(CN5CCN(CC)CC5)cc4)c3c2)o1	612
COc1ccc(-c2cc(N3CCN(C(=O)NCC(C)C)CC3)ncn2)cc1OC	623
Cc1ccc(-n2nc3c(N4CCCC(C(=O)NCCCN5CCCC5=O)C4)nnc(C)c3c2C)cc1 (centres undefined)	627
CN(C)C(=O)OCC1COc2ccccc2O1 (centres undefined)	883
Clc1cccc(Cc2nc(-c3ccc4nncn4c3)no2)c1	827
CCc1cc(=O)n(CC(=O)Nc2cc(F)ccc2C)c(N2CCOCC2)n1	776
CCOc1ccccc1N1CCN(C(=O)CN2CCN(Cc3ccc(F)cc3)C2=O)CC1	833
COc1ccc(CC(=O)N2C[C@@H]3C[C@H](NS(C)(=O)=O)[C@H]2C3)cc1Cl	651
Cc1cc(C)n(CCNC(=O)NC(c2ccccc2)c2ccccc2)n1	716
Cc1nc(-c2noc(-c3ccc(F)cc3)n2)cn1CC(=O)NC1CCc2ccccc21 (centres undefined)	874
Cn1c(=O)oc2cc(-c3noc(-c4ccc(C#N)cc4)n3)ccc21	988
CCC1CN(C(=O)Nc2ccc(OC)cc2)c2ccccc2O1 (centres undefined)	968
CC(=O)Nc1ccc(NC(=O)c2ccc3nc(-c4ccccc4)cn3c2)cc1	612

Compound	RP-LC retention time [s]
CCOC(=O)c1cc(S(=O)(=O)N2CCCC2C(=O)NCc2cccnc2)cn1C (centres undefined)	598
Cc1ccc(CNC(=O)N2CCN(C(=O)N3C[C@H]4C[C@@H](C3)[C@H]3CCCC(=O)N3C4)CC2)cc1	677
Brc1ccc(OCc2nnc3sc(CCc4ccccc4)nn23)cc1	1060
CCCN1CCN(C(=O)Cn2c3ccccc3c3cnn(C)c(=O)c32)CC1	590
CCc1ccc(C(=O)NC2CCN(c3ccccc3)C2=O)cc1 (centres undefined)	811
Cc1ccc(S(=O)(=O)c2cnc(N3CCC(C(N)=O)(N4CCCCC4)CC3)nc2N)cc1	613
CN1CCN(C(=O)O[C@H]2c3nccnc3C(=O)N2c2ccc(Cl)cn2)CC1	660
CC1CCN(c2cc(-n3cnc(C(=O)N4CCN(c5ccccn5)CC4)c3)ncn2)CC1	675
O=C(Nc1ccc(Br)cc1)C1CCN(c2cc(N3CCCC3)ncn2)CC1	721
COc1cccc(-c2noc(Cn3c(=O)n(-c4cccc(F)c4)c(=O)c4sccc43)n2)c1	957
O=c1c2sccc2n(Cc2nc(-c3ccc(F)c(Br)c3)no2)c(=O)n1-c1ccccc1	961
COc1cc(O)cc(O)c1C(=O)/C=C/c1ccccc1	903
Cc1nn(CC(=O)N2CCCC2)c(=O)c2nc(C(C)C)sc12	680
Cc1ccc(NC(=O)Cn2c(-c3cnccn3)nc(C)c(C)c2=O)cc1F	793
CN(C)S(=O)(=O)c1cccc(-c2nnc(-c3ccccc3Br)o2)c1	947
O=C(c1ccc2ccnc(N3CCN(c4ccccc4)CC3)c2c1)N1CCN(c2ccccn2)CC1	616
CC(=O)c1ccc(N2C(=O)Cn3cccc3C2C(=O)NC2CCC(C)CC2)cc1 (centres undefined)	869
O=C(Nc1ccc2c(c1)CN(S(=O)(=O)c1ccc3c(c1)CCC3)CCO2)C1CC1	932
CCOc1ccc(N2CCCCn3c2nc2c3c(=O)n(CC)c(=O)n2C)cc1	902
Cc1ccc(-c2nc(Cn3ccn4nc(-c5ccc(F)cc5)cc4c3=O)c(C)o2)cc1	1220

Compound	RP-LC retention time [s]
C=CCN1C(=O)COc2ccc(-c3csc(NC(=O)C(C)C)n3)cc21	895
CCOC(=O)C(=O)Nc1cc(Cl)ccc1C#N	763
COc1ccc(C2(CNC(=O)C(=O)Nc3ccccc3Cl)CCCC2)cc1	1300
O=C(Nc1cc(F)cc(F)c1)c1c(O)c2cccnc2n(-c2ccc(F)cc2)c1=O	918
Cc1ccc(CN(C(=O)C(C)Oc2cccc(C)c2C)C2CCS(=O)(=O)C2)o1 (centres undefined)	977
O=C(c1cccs1)N1CCCCC1c1nc(-c2ccncc2)no1 (centres undefined)	818
CC(=O)Nc1ccc(SCCCC(=O)Nc2ccc3c(c2)OCCO3)nn1	634
O=C1CC(c2cccc(Cl)c2)Cc2nc(N3CCN(c4ccccc4)CC3)ncc21 (centres undefined)	1340
Cc1c(C(=O)NCC(C)C)cnn1-c1ccc(-c2nc(C(C)(C)C)no2)cn1	1110
O=C1CCC2(C(=O)NCC3CC3)CCCC=C2N1c1ccccc1 (centres undefined)	726
COc1ccc(-c2nnc(-c3ccccc3Cl)o2)cc1S(=O)(=O)N1CCOCC1	871
CC(=O)N1CCc2sc(S(=O)(=O)N3CCN(c4ccccc4Cl)CC3)cc2C1	945
Cc1nc(-c2ccccc2)cc2nn(CC(=O)NC3CCCC3)c(=O)n12	865
COc1ccc(OC)c(C(O)CN2CCN(c3ccccc3F)CC2)c1 (centres undefined)	677
COc1ccc(NS(=O)(=O)c2cc(-c3c(C)noc3NC(C)=O)ccc2OC)c(OC)c1	724
Cc1cccc(NC(=O)CN2C(=O)NC3(CCCCC3)C2=O)c1C	765
CCOc1cc(=O)c(C(N)=O)nn1-c1ccc(C)cc1	613
CC(C)C(=O)N1CCCCCNC(=O)[C@@H]2CCCC[C@@H]21	700

Reference: the METLIN SMRT retention time set (Domingo-Almenara et al. 2019)
